Assay results from patent publication US20220127247A1, “N-(PYRIDIN-2-YL)PYRIDINE-SULFONAMIDE DERIVATIVES AND THEIR USE IN THE TREATMENT OF DISEASE” (NOVARTIS AG, priority 2019, published 2022).
pEC50: −log10 of the molar value.

Biological target: T1, delF508-CFTR (Homo sapiens, UniProt P13569, DEL508-508)
T1 construct: expressed in transfected cells
Assay: Measurement of delF508-CFTR-HRP surface expression in CFBE41o- cells
Format: cell-based
Conditions: for pEC50: HRP-tagged delF508-CFTR in CFBE41o- cells, 24 h with compound, luminescence, 10-point curve, top 10 μM; for Emax: efficacy relative to reference compound 3-(6-(1-(2,2-difluorobenzo[d][1,3]dioxol-5-yl)cyclopropane-1-carboxamido)-3-methylpyridin-2-yl)benzoic acid, CFBE41o- cells, 24 h, read-out: DelF508-CFTR-HRP Amax %
Text: Measurement of delF508-CFTR-HRP Surface Expression in CFBE41o-Cells
This assay quantifies the cell surface expressions of the mutant CFTR channel using an extracellular HRP tag.
A cellular assay was developed to measure surface expression of horseradish peroxidase (HRP) tagged delF508-CFTR in the human bronchial epithelial immortalized CFBE41o-cell line (Phuan, P. W., et al, (2014) Molecular Pharmacology 86:42-51). Specifically, the HRP sequence was inserted into the fourth extracellular loop of delF508-CFTR and stably expressed in CFBE41o-cells. Cells were seeded in 384 well plate at a density of 5000 cells/well and incubated at 37° C. for 12 to 24 hours in medium (Gibco MEM #11095, 10% FBS, 10 mM HEPES, […], 200 μg/mL G418, 3 μg/mL Puromycin). The delF508-CFTR-HRP expression was induced with 500 ng/mL doxycycline (Sigma D-9891, dissolved in H2O and sterile filtered) in medium and the cells were incubated at 37° C. for 48 h. Old medium was removed and fresh medium was added containing 500 ng/mL doxycycline and unknown test compound at required test concentration in DMSO, not exceeding 0.5% final DMSO concentration. The highest concentration tested was 10 μM with a 10-point concentration response curve using a 3-fold dilution. After addition of compounds, the cells were incubated for 24 h at 37° C. On the final day, cells were washed four times in PBS containing 1 mM MgCl2 and 0.1 mM CaCl2. HRP-Substrate (SuperSignal ELISA Pico, Fisher #37069) 20 μl/well was added and the luminescence signal was determined (Viewlux, Perkin Elmer). Light was emitted upon addition of exogenous HRP-Substrate only when delF508-CFTR-HRP reached the cell surface and the HRP tag was accessible to the HRP-Substrate (note: HRP-Substrate cannot cross the lipid bilayer to reach delF508-CFTR-HRP misfolded within the cell).
The median activity for the lowest concentration of the compounds on each assay plate was calculated and this value was used to normalize the signal for each well on the respective plate. Three replicates at each concentrations for every compound were run to determine one EC50. The median value was determined and used to calculate compound activities as described below. Effective half maximal values (EC50) were calculated for each compound by performing logistic regression on measured dose-response data points using the equation: […]
where “Y” is the observed activity, “Bottom” is the lowest observed value, “Top” is the highest observed value, and the “Hill coefficient” gives the largest absolute value of the slope. The curve fitting is carried out by a curve fitting program implemented at GNF using Matlab (Mathworks).
The dose response curves also were used to calculate Fold Change (FC) using the equation: […]
Compound efficacy relative to the reference compound 3-(6-(1-(2,2-difluorobenzo[d][1,3]dioxol-5-yl)cyclopropane-1-carboxamido)-3-methylpyridin-2-yl)benzoic acid was determined using the following formula: […]

T1 sequence (P13569 with tags, fused parts or gaps DEL508-508): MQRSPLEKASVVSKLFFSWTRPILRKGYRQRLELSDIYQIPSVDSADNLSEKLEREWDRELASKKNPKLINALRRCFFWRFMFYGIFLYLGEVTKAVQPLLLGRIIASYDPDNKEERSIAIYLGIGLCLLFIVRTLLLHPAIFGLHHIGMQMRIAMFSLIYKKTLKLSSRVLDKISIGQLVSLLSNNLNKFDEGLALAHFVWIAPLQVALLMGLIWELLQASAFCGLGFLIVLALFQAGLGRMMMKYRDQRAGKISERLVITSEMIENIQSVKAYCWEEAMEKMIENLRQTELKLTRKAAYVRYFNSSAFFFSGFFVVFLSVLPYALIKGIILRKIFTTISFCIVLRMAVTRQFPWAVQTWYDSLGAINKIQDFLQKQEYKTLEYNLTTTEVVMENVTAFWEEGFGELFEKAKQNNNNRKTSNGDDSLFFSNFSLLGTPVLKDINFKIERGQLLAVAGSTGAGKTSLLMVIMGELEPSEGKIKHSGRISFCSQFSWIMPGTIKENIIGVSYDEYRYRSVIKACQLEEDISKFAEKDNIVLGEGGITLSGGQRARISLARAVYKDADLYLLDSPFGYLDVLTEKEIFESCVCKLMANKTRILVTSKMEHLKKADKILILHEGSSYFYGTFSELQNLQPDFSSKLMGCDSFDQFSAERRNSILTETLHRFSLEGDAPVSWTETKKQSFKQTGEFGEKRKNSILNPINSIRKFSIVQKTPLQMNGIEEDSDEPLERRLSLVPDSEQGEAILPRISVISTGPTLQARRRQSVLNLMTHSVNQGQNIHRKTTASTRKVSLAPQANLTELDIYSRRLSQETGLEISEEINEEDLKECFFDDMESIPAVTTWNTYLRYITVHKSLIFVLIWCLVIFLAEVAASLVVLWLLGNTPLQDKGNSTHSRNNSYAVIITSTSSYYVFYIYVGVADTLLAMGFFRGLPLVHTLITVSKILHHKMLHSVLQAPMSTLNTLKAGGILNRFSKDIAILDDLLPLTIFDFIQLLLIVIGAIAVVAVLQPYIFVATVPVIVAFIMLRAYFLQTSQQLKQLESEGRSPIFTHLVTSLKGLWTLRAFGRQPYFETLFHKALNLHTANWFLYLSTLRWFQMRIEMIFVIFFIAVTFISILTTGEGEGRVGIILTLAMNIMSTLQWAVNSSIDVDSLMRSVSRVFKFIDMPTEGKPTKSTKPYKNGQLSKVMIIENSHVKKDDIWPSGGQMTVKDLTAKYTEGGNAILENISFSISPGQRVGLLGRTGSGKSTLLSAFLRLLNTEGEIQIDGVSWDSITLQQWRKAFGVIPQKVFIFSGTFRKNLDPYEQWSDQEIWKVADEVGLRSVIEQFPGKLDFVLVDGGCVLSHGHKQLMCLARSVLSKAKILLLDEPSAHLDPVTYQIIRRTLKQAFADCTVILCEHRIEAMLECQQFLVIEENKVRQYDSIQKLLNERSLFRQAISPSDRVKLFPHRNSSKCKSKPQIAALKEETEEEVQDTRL

Row | Structure (SMILES) | pEC50 | Emax [%]
1 | COc1ccc(Cl)c(-c2nc(NS(=O)(=O)c3cccc(N4CCN(c5ccc(C(=O)O)cc5)CC4)n3)ccc2C(F)(F)F)c1 [Compound 21, 4-(4-(6-(N-(6-(2-chloro-5-methoxyphenyl)-5-(trifluoromethyl)pyridin-2-yl)sulfamoyl)pyridin-2-yl)piperazin-1-yl)benzoic Acid] | 5.53 | 361
2 | CCc1ccccc1-c1nc(NS(=O)(=O)c2cccc(N3CCC(CC(=O)O)CC3)n2)ccc1C(F)(F)F [Compound 15, 2-(1-(6-(N-(6-(2-ethylphenyl)-5-(trifluoromethyl)pyridin-2-yl)sulfamoyl)pyridin-2-yl)piperidin-4-yl)acetic Acid] | 5.67 | 397
3 | CCc1ccc(F)cc1-c1nc(NS(=O)(=O)c2cccc(N(CCC(=O)O)C(C)C)n2)ccc1C(F)(F)F [Compound 119, 3-((6-(N-(6-(2-ethyl-5-fluorophenyl)-5-(trifluoromethyl)pyridin-2-yl)sulfamoyl)pyridin-2-yl)(isopropyl)amino)propanoic Acid] | 5.85 | –
4 | C=Cc1ccccc1-c1nc(NS(=O)(=O)c2cccc(N3CCC[C@H](CC(=O)O)C3)n2)ccc1C(F)(F)F [Compound 57, (R)-2-(1-(6-(N-(5-(trifluoromethyl)-6-(2-vinylphenyl)pyridin-2-yl)sulfamoyl)pyridin-2-yl)piperidin-3-yl)acetic Acid] | 5.71 | –
5 | CC1(CC(=O)O)CCN(c2cccc(S(=O)(=O)Nc3ccc(C(F)(F)F)c(-c4ccccc4C4CCC4)n3)n2)CC1 [Compound 24, 2-(1-(6-(N-(6-(2-cyclobutylphenyl)-5-(trifluoromethyl)pyridin-2-yl)sulfamoyl)pyridin-2-yl)-4-methylpiperidin-4-yl)acetic Acid] | 5.88 | 909
6 | CCC(CC(=O)O)Nc1cc(S(=O)(=O)Nc2ccc(Cl)c(-c3c(C)cccc3C)n2)ccn1 (centres unmarked) [Compound 141] | 5.40 | 291
7 | CCC(NC(=O)C1CCC(Nc2cccc(S(=O)(=O)Nc3ccc(Cl)c(-c4ccccc4C)n3)n2)CC1)C(=O)O (centres unmarked) [Compound 136, 2-(4-((6-(N-(5-chloro-6-(o-tolyl)pyridin-2-yl)sulfamoyl)pyridin-2-yl)amino)cyclohexane-1-carboxamido)butanoic Acid] | 5.64 | 952
8 | CC(C)c1ccncc1-c1nc(NS(=O)(=O)c2cccc(N3CCCC(C)(C(=O)O)C3)n2)ccc1C(F)(F)F (centres unmarked) [Compound 30, 1-(6-(N-(4′-isopropyl-3-(trifluoromethyl)-[2,3′-bipyridin]-6-yl)sulfamoyl)pyridin-2-yl)-3-methylpiperidine-3-carboxylic Acid] | 5.65 | 303
9 | Cc1ccccc1-c1nc(NS(=O)(=O)c2cccc(N3CCCC(CCCC(=O)O)C3)n2)ccc1C(F)(F)F (centres unmarked) [Compound 75, 4-(1-(6-(N-(6-(o-tolyl)-5-(trifluoromethyl)pyridin-2-yl)sulfamoyl)pyridin-2-yl)piperidin-3-yl)butanoic Acid] | 5.70 | –
10 | Cc1ccc(F)cc1-c1nc(NS(=O)(=O)c2cccc(N(C)CC(C)(C)C(=O)O)n2)ccc1C(F)(F)F [Compound 45, 3-((6-(N-(6-(5-fluoro-2-methylphenyl)-5-(trifluoromethyl)pyridin-2-yl)sulfamoyl)pyridin-2-yl)(methyl)amino)-2,2-dimethylpropanoic Acid] | 5.80 | 598
11 | Cc1ccccc1-c1nc(NS(=O)(=O)c2cccc(NCC3(C(=O)O)CC3)n2)ccc1C(F)(F)F [Compound 11, 1-(((6-(N-(6-(o-tolyl)-5-(trifluoromethyl)pyridin-2-yl)sulfamoyl)pyridin-2-yl)amino)methyl)cyclopropane-1-carboxylic Acid] | 5.65 | 415
12 | Cc1ccc(F)cc1-c1nc(NS(=O)(=O)c2cccc(N(CCC(=O)O)CCC(F)(F)F)n2)ccc1C(F)(F)F [Compound 151, 3-((6-(N-(6-(5-fluoro-2-methylphenyl)-5-(trifluoromethyl)pyridin-2-yl)sulfamoyl)pyridin-2-yl)(3,3,3-trifluoropropyl)amino)propanoic Acid] | 5.72 | –
13 | C=Cc1ccccc1-c1nc(NS(=O)(=O)c2cccc(N3CCC[C@H](CC(=O)OCC)C3)n2)ccc1C(F)(F)F [Compound 77, ethyl (R)-2-(1-(6-(N-(5-(trifluoromethyl)-6-(2-vinylphenyl)pyridin-2-yl)sulfamoyl)pyridin-2-yl)piperidin-3-yl)acetate] | 5.84 | 945
14 | CCCCN(CCC(=O)O)c1cccc(S(=O)(=O)Nc2ccc(C(F)(F)F)c(-c3cc(F)ccc3C)n2)n1 [Compound 153, 3-(butyl(6-(N-(6-(5-fluoro-2-methylphenyl)-5-(trifluoromethyl)pyridin-2-yl)sulfamoyl)pyridin-2-yl)amino)propanoic Acid] | 6.09 | 770
15 | C=Cc1ccccc1-c1nc(NS(=O)(=O)c2cccc(N3CCCC(CCCC(=O)O)C3)n2)ccc1C(F)(F)F (centres unmarked) [Compound 76, 4-(1-(6-(N-(5-(trifluoromethyl)-6-(2-vinylphenyl)pyridin-2-yl)sulfamoyl)pyridin-2-yl)piperidin-3-yl)butanoic Acid] | 5.84 | –
16 | Cc1c(F)cccc1-c1nc(NS(=O)(=O)c2cccc(N(C)CC(C)(C)C(=O)O)n2)ccc1C(F)(F)F [Compound 47, 3-((6-(N-(6-(3-fluoro-2-methylphenyl)-5-(trifluoromethyl)pyridin-2-yl)sulfamoyl)pyridin-2-yl)(methyl)amino)-2,2-dimethylpropanoic Acid] | 5.74 | 496
17 | Cc1ccccc1-c1nc(NS(=O)(=O)c2cccc(N3CCC(CC(=O)O)CC3)n2)ccc1C(F)(F)F [Compound 14, 2-(1-(6-(N-(6-(o-tolyl)-5-(trifluoromethyl)pyridin-2-yl)sulfamoyl)pyridin-2-yl)piperidin-4-yl)acetic Acid] | 5.59 | 283
18 | COCCN(CCCC(=O)O)c1cccc(S(=O)(=O)Nc2ccc(C(F)(F)F)c(-c3ccccc3C)n2)n1 [Compound 158, 4-((2-methoxyethyl)(6-(N-(6-(o-tolyl)-5-(trifluoromethyl)pyridin-2-yl)sulfamoyl)pyridin-2-yl)amino)butanoic Acid] | 5.74 | 839
19 | CCc1ccc(F)cc1-c1nc(NS(=O)(=O)c2cccc(N(CCC(=O)O)CC3CC3)n2)ccc1C(F)(F)F [Compound 116, 3-((cyclopropylmethyl)(6-(N-(6-(2-ethyl-5-fluorophenyl)-5-(trifluoromethyl)pyridin-2-yl)sulfamoyl)pyridin-2-yl)amino)propanoic Acid] | 5.92 | –
20 | CC(C)c1ccccc1-c1nc(NS(=O)(=O)c2cccc(N3CCC(C)(CC(=O)O)CC3)n2)ccc1C(F)(F)F [Compound 25, 2-(1-(6-(N-(6-(2-isopropylphenyl)-5-(trifluoromethyl)pyridin-2-yl)sulfamoyl)pyridin-2-yl)-4-methylpiperidin-4-yl)acetic Acid] | 6.00 | 780
21 | C=Cc1ccccc1-c1nc(NS(=O)(=O)c2cccc(N3CCC[C@@H](CC(=O)OC)C3)n2)ccc1C(F)(F)F [Compound 78, methyl (S)-2-(1-(6-(N-(5-(trifluoromethyl)-6-(2-vinylphenyl)pyridin-2-yl)sulfamoyl)pyridin-2-yl)piperidin-3-yl)acetate] | 5.85 | –
22 | CCc1ccccc1-c1nc(NS(=O)(=O)c2cccc(N3CCC(C)(CC(=O)O)CC3)n2)ccc1C(F)(F)F [Compound 22, 2-(1-(6-(N-(6-(2-ethylphenyl)-5-(trifluoromethyl)pyridin-2-yl)sulfamoyl)pyridin-2-yl)-4-methylpiperidin-4-yl)acetic Acid] | 5.97 | 485
23 | Cc1cccc(C)c1-c1nc(NS(=O)(=O)c2cccc(NCCCCC(=O)O)n2)ccc1Cl [Compound 4, 5-((6-(N-(5-chloro-6-(2,6-dimethylphenyl)pyridin-2-yl)sulfamoyl)pyridin-2-yl)amino)pentanoic Acid] | 5.66 | –
